We go through 13 compounds from US6903132B2, “Non-peptide GnRH agents, pharmaceutical compositions and methods for their use” (Agouron Pharmaceuticals, Inc., priority 2002, dated 2005).

Common to all, as to assay: Radioligand binding assay: inhibition of binding of 125I-GnRH-A to GnRH receptors (membranes)
One assay deals with T1, rat GnRH receptor (Rattus norvegicus, UniProt P30969).
T1 construct: rat pituitaries (Pel Freez Biologicals, Rogers, Ark.) are homogenized in buffer A; tissue Pel Freez Biologicals; host or cells: rat pituitaries
T1 sequence (P30969 1-327): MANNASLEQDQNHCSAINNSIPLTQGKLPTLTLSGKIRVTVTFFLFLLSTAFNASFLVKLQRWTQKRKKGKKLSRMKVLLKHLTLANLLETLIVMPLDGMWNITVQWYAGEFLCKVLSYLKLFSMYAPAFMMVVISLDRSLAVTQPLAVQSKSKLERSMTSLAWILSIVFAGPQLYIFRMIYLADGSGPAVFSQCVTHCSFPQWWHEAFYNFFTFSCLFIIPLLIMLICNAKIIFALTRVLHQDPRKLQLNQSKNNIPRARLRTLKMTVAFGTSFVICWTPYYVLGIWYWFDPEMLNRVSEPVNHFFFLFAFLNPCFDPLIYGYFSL
The following applies: competition with 125I-GnRH-A, Ki calculated from IC50 (Cheng et al.). On the procedure: (§1) HEK 293 cells stably transfected with mouse or human GnRH receptors as described above are grown in Dulbecco's high-glucose, modified Eagle's medium (DMEM) supplemented with 0.2% G418, 10% fetal bovine serum (FBS) and 100U/mL penicillin/streptomycin. GH3 cells stably transfected with the rat GnRH receptor (GGH3) were provided by Dr. William Chin (Harvard Medical School, Boston, Mass.). These cells are extensively characterized previously (Kaiser et al., 1997). The cells are grown in low glucose DMEM containing: 100U/mL penicillin/streptomycin, 0.6% G418 and 10% heat-inactivated FBS.
(§2) HEK 293 cells containing mouse or human receptors, or rat pituitaries (Pel Freez Biologicals, Rogers, Ark.) are homogenized in buffer A containing: 50 mM Tris (pH 7.4), 0.32 M sucrose, 2 mM EGTA, 1 mM PMSF, 5 μg/ml aprotinen, 5 μg/ml Pepstatin A, and 1 μg/ml leupeptin. Homogenized cells are centrifuged at 4° C. at 20,000×g for 25 minutes, re-suspended in buffer A and re-centrifuged at 4° C. at 20,000×g for an additional 25 minutes. Total membrane protein was determined with a BCA kit (Pierce, Rockford, Ill.). Membranes are stored at −70° C. at a final membrane protein concentration of approximately 5 mg/ml.
(§3) The radioiodinated agonist analog of GnRH, [des-Gly^10, D-Ala^6]GnRH ethylamide (^125I-GnRH-A), is used as the radioligand. One μg of GnRH-A diluted in 0.5 M phosphate buffer (pH 7.4) is added to an lodogen®-coated borosilicate glass tube (Pierce, Rockford, Ill.) containing 35 μl of 0.05 M phosphate buffer (pH 7.4-7.6) and 1 mCi of Na[^125I]. The reaction mixture is vortexed and incubated for 1 minute at room temperature. After one minute, the mixture is vortexed and allowed to incubate for an additional minute. 2 ml of 0.5 M acetic acid/1% BSA is added to the reaction tube and the mixture is added to a C18 Sep-Pak cartridge. The cartridge is washed with subsequent washes of 5 ml H2O and 5 ml 0.5 M acetic acid and then eluted with 5×1 ml of 60%CH3CN/40% 0.5 M acetic acid. The eluate is diluted with 3× volume of HPLC buffer A (0.1% TFA in H2O) and loaded onto a C18 column. The iodinated product is eluted over 20-25 min with a gradient of 25-100% CH3CN containing 0.1% TFA. The radioactive fractions (750 μl/fraction) are collected into clean polypropylene tubes containing 100 μl of 10% BSA. Fractions are assessed for biological activity by radiolig and binding. Specific activity of the radioligand was approximately 2200 Ci/mmol.
(§4) Membranes are diluted to 0.01-0.5 mg/ml (depending upon the species of receptor) with assay buffer containing 50 mM HEPES (pH 7.4), 1 mM EDTA, 2.5 mM MgCl2, and 0.1% BSA. Membranes (diluted to utilize similar receptor numbers between assays) are incubated with approximately 0.04-0.06 nM ^125I-GnRH-A in the presence or absence of competing agents (0.1-10,000 nM) in a total volume of 200 μl in 96-well polypropylene plates for 1 hour at room temperature. Assays are stopped by rapid filtration onto 96-well GF/C filters soaked in 0.1% polyethylenimine (PEI) utilizing a Packard 96-well cell harvester. Filters are washed three times with ice-cold PBS (50 mM NaPO4, 0.9% NaCl, 2 mM MgCl2, and 0.02% NaN3, pH 7.4). 35 μl of scintillation cocktail is added to each filter well and filters are counted on a Packard Topcount. Control dose-response curves are generated to GnRH (0.1 nM-100 nM) in each competition binding experiment. Ki values were calculated from IC50 values according to Cheng et al., Biochemical Pharmacol. 22: 3099-3108, 1973. [formula]

For another assay, the target named is T2, human GnRH receptors (Homo sapiens, UniProt P30968).
T2 construct: expressed in transfected cells; host or cells: HEK 293
T2 sequence (P30968 1-328): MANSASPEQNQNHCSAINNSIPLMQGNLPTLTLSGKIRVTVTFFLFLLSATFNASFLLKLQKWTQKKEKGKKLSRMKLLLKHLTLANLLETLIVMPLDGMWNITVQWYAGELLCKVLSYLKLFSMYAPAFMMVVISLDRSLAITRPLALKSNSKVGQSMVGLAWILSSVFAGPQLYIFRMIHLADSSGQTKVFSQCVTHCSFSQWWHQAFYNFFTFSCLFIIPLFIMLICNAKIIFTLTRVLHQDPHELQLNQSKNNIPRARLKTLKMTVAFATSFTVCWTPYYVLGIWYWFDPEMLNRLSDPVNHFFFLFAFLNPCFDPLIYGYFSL
The following applies: Human GnRH receptor; competition with 125I-GnRH-A; Ki calculated from IC50 (Cheng et al.). On the procedure: as §1, §2, §3, §4

In another assay the target is T3, mouse GnRH receptors (Mus musculus, UniProt Q01776).
T3 construct: expressed in transfected cells; host or cells: HEK 293
T3 sequence (Q01776 1-327): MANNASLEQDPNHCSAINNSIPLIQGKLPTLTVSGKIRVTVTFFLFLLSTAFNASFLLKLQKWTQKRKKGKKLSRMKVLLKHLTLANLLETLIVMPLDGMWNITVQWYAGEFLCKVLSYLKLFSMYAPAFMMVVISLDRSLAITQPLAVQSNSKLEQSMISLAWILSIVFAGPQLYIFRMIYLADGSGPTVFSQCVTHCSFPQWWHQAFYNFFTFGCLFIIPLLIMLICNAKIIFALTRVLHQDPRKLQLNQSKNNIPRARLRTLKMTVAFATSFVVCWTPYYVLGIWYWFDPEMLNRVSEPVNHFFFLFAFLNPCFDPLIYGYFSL
The following applies: Mouse GnRH receptor; competition with 125I-GnRH-A; Ki calculated from IC50 (Cheng et al.). On the procedure: as §1, §2, §3, §4

As for `Cc1cc2c(cc1Oc1ccc(C(=O)NNc3ccc4ccccc4n3)o1)C(C)(C)CC(C)C2(C)C` (stereo not shown) [Example I20, 5-(3,5,5,6,8,8-Hexamethyl-5,6,7,8-tetrahydro-naphthalen-2-yloxy)-furan-2-carboxylic acid N′-quinolin-2-yl-hydrazide], the Ki (as a rule, a measure of affinity in units of concentration, obtained from inhibition or displacement) was 0.0073 µM at rat GnRH receptor, 0.0038 µM on human GnRH receptors and 0.004 µM on mouse GnRH receptors.

For `Cc1sc2c(c1Cc1ccc(C(=O)NNc3cc(C)c4c(C)nn(C)c4n3)o1)C(C)(C)CCC2(C)C` [Example J28, 5-(2,4,4,7,7-Pentamethyl-4,5,6,7-tetrahydro-benzo[b]thiophen-3-ylmethyl)-furan-2-carboxylic acid N′-(1,3,4-trimethyl-1H-pyrazolo[3,4-b]pyridin-6-yl)-hydrazide], the Ki at rat GnRH receptor is 0.245 µM; at human GnRH receptors, 0.03 µM; on mouse GnRH receptors, 0.13 µM.

Take `Cc1cc(NNC(=O)c2ccc(Oc3cc(C(C)(C)C)ccc3Br)o2)nc2c1c(C)nn2C` [Example I6, 5-(2-Bromo-5-tert-butyl-phenoxy)-furan-2-carboxylic acid N′-(1,3,4-trimethyl-1H-pyrazolo[3,4-b]pyridin-6-yl)-hydrazide]: the Ki at rat GnRH receptor was 0.079 µM; at human GnRH receptors, 0.05 µM; on mouse GnRH receptors it was 0.061 µM.

Regarding `Cc1cc2c(cc1Cc1ccc(C(=O)NNc3ncc(C(F)(F)F)cc3Cl)o1)C(C)(C)CCC2(C)C` [Example C12, N′-[3-Chloro-5-(trifluoromethyl)-2-pyridinyl]-5-[(3,5,5,8,8-pentamethyl-5,6,7,8-tetrahydro-2-naphthalenyl)methyl]-2-furohydrazide], the Ki is 0.039 µM at rat GnRH receptor, 0.046 µM at human GnRH receptors and 0.033 µM at mouse GnRH receptors.

In the case of `Cc1cc(NNC(=O)c2ccc(Oc3cc(C(C)(C)C)c(Br)cc3Br)o2)nc2c1c(C)nn2C` [Example I12, 5-(2,4-Dibromo-5-tert-butyl-phenoxy)-furan-2-carboxylic acid N′-(1,3,4-trimethyl-1H-pyrazolo[3,4-b]pyridin-6-yl)-hydrazide], the Ki is 1.16 µM at rat GnRH receptor, 0.165 µM at human GnRH receptors and 0.26 µM on mouse GnRH receptors.

For the compound `Cc1cc2c(cc1Oc1ccc(C(=O)NNc3cc(C)c4c(C)nn(C)c4n3)o1)C(C)(C)CCC2` [Example I21, N′-(1,3,4-trimethyl-1H-pyrazolo[3,4-b]pyridin-6-y)-5-[(3,8,8-trimethyl-5,6,7,8-tetrahydro-2-naphthalenyl)oxy]-2-furohydrazide], the results for the Ki on rat GnRH receptor, on human GnRH receptors and on mouse GnRH receptors were 0.022 µM, 0.0042 µM and 0.005 µM, respectively.

Take `COc1c(Oc2ccc(C(=O)NNc3cc(C)c4c(C)nn(C)c4n3)o2)c(C)cc2c1C(C)(C)CCC2(C)C` [Example I28, 5-(1-Methoxy-3,5,5,8,8-pentamethyl-5,6,7,8-tetrahydro-naphthalen-2-yloxy)-furan-2-carboxylic acid N′-(1,3,4-trimethyl-1H-pyrazolo[3,4-b]pyridin-6-yl)-hydrazide]: the Ki was 0.0042 µM at rat GnRH receptor, 0.0003 µM on human GnRH receptors and 0.0026 µM on mouse GnRH receptors.

On to `Cc1cc(NNC(=O)c2ccc(Oc3cc4c(cc3Cl)N(C)CCC4(C)C)o2)nc2c1c(C)nn2C` [Example I27, 5-(7-Chloro-1,4,4-trimethyl-1,2,3,4-tetrahydro-quinolin-6-yloxy)-furan-2-carboxylic acid N′-(1,3,4-trimethyl-1H-pyrazolo[3,4-b]pyridin-6-yl)-hydrazide], for which the Ki on rat GnRH receptor was 0.37 µM; on human GnRH receptors it was 0.101 µM; at mouse GnRH receptors, 0.122 µM.

For `Cc1cc2c(cc1Oc1ccc(C(=O)NNc3cc(C)c4c(C)nn(C)c4n3)o1)C(C)(C)CC2` [Example I7, 5-(3,3,6-Trimethyl-indan-5-yloxy)-furan-2-carboxylic acid N′-(1,3,4-trimethyl-1H-pyrazolo[3,4-b]pyridin-6-yl)-hydrazide], the Ki on rat GnRH receptor was 0.017 µM; on human GnRH receptors, 0.0028 µM; at mouse GnRH receptors, 0.011 µM.

Consider `COc1ccc(C(C)(C)C)cc1Cc1ccc(C(=O)NNc2cc(C)c3c(C)nn(C)c3n2)o1` [Example J19, 5-[5-(tert-butyl)-2-methoxybenzyl]-N′-(1,3,4-trimethyl-1H-pyrazolo[3,4-b]pyridin-6-yl)-2-furohydrazide], for which the Ki is 0.23 µM at rat GnRH receptor, 0.14 µM at human GnRH receptors and 0.32 µM on mouse GnRH receptors.

Consider `Cc1ccc(C(C)(C)C)cc1Oc1ccc(C(=O)NNc2cc(C)c3c(C)nn(C)c3n2)o1` [Example I19, 5-(5-tert-Butyl-2-methyl-phenoxy)-furan-2-carboxylic acid N′-(1,3,4-trimethyl-1H-pyrazolo[3,4-b]pyridin-6-yl)-hydrazide], for which the Ki at rat GnRH receptor was 0.039 µM; on human GnRH receptors, 0.017 µM; at mouse GnRH receptors, 0.044 µM.

Consider `Cc1cc2c(cc1Cc1ccc(C(=O)NNc3ncc(C(F)(F)F)cc3Cl)o1)C(C)(C)OC2(C)C` [Example E3, N′-[3-chloro-5-(trifluoromethyl)pyridin-2-yl]-5-[(1,1,3,3,6-pentamethyl-1,3-dihydro-2-benzofuran-5-yl)methyl]-2-furohydrazide], for which the Ki is 0.091 µM at rat GnRH receptor and 0.84 µM at human GnRH receptors.

Consider `Cc1cc2c(c(Br)c1Oc1ccc(C(=O)NNc3cc(C)c4c(C)nn(C)c4n3)o1)C(C)(C)CC2` [Example I22, 5-(4-Bromo-3,3,6-trimethyl-indan-5-yloxy)-furan-2-carboxylic acid N′-(1,3,4-trimethyl-1H-pyrazolo[3,4-b]pyridin-6-yl)-hydrazide], for which the figures for the Ki at rat GnRH receptor and on human GnRH receptors were 0.052 µM and 0.01 µM, respectively.
